Measurements: ChEMBL document CHEMBL5104119, “Miniproteins in medicinal chemistry” (Bioorg Med Chem Lett, 2022)
Blank lines part the entries; values can stand above or below the compound they belong to.

Experiments:
T-cell line = assay: Immunomodulatory activity in human T cells assessed as inhibition of IL-2 production incubated for 15 mins by FACSCalibur flow cytometry analysis; format: functional, cell-based; details: 0.25 h
[1] = tested on: Human immunodeficiency virus; assay: Antiviral activity against HIV infected in human HeLa cells expressing CD4-LTR-beta-gal assessed as inhibition of syncytia formation measured after 15 hrs by 5-bromo-4-chloro-3-indolyl-beta-D-galactoside staining based colorimetry assay; format: functional, organism-based; details: Human immunodeficiency virus 1, HeLa
[2] = tested on: Human immunodeficiency virus 1; assay: Antiviral activity against recombinant luciferase-expressing HIV-1 infected in HEK293T cells incubated for 48 hr by luciferase assay based luminometer analysis; format: functional, organism-based; details: Human immunodeficiency virus 1, HEK-293T
[3] = target: Neuronal acetylcholine receptor; alpha9/alpha10 (Homo sapiens, UniProt Q9GZZ6+Q9UGM1); assay: Inhibition of human nAChR alpha9alpha10 expressed in Xenopus laevis oocytes holding potential of -70 mV by voltage-clamp based electrophysiological method; format: cell-based
Chain of Neuronal acetylcholine receptor; alpha9/alpha10 (Q9UGM1 whole entry): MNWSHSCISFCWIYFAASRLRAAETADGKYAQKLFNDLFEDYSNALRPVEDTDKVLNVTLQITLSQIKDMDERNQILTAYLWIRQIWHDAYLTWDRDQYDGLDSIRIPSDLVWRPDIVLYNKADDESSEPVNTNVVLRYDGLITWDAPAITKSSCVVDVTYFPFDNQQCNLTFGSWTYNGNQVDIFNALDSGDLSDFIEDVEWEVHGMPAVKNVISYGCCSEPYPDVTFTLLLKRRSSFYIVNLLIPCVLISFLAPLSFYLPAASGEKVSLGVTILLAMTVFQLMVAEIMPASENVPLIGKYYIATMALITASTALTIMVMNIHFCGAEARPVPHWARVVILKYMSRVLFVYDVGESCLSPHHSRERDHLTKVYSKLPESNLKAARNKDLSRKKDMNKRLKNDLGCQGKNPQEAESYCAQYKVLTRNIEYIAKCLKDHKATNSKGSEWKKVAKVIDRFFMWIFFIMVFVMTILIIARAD
Chain of Neuronal acetylcholine receptor; alpha9/alpha10 (Q9GZZ6 whole entry): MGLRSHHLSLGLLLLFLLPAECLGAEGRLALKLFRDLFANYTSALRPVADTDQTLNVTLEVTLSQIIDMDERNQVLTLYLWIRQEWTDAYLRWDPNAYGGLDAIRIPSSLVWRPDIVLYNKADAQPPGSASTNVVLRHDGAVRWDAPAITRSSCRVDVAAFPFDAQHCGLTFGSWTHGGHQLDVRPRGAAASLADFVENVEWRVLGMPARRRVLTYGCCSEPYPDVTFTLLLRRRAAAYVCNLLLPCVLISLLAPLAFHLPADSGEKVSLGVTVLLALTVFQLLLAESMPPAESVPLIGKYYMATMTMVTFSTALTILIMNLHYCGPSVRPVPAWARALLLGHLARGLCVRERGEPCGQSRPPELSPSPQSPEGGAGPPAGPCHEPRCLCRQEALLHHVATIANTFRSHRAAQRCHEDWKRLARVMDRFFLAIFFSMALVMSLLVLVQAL

[4] = Antiproliferative activity against human PBMC cells assessed as cell growth inhibition incubated for 10 mins by CFSE staining based flow cytometric analysis; format: toxicity

IC50 (T-cell line): 1900 nM
Compound: CC(C)C[C@@H]1NC(=O)CNC(=O)[C@H](CC(N)=O)NC(=O)[C@H](CCCNC(=N)N)NC(=O)[C@H]([C@@H](C)O)NC(=O)[C@@H]2CSSC[C@@H]3NC(=O)[C@H]([C@@H](C)O)NC(=O)CNC(=O)CNC(=O)[C@H](C(C)C)NC(=O)[C@@H]4CSSC[C@H](NC(=O)[C@H](CCCCN)NC(=O)[C@H](CSSC[C@H](NC(=O)[C@H](C(C)C)NC(=O)[C@@H]5CCCN5C1=O)C(=O)NCC(=O)N[C@@H](CCC(=O)O)C(=O)N[C@@H]([C@@H](C)O)C(=O)N4)NC(=O)CNC(=O)[C@@H]1CCCN1C(=O)[C@H]([C@@H](C)O)NC(=O)[C@H](CC(N)=O)NC3=O)C(=O)N[C@@H](CO)C(=O)N[C@@H](Cc1c[nH]c3ccccc13)C(=O)N1CCC[C@H]1C(=O)N[C@@H](C(C)C)C(=O)N2

IC50 [1]: 0.55 nM | IC50 [2]: 2.1 nM
Compound: Ac-WMEWDREINNYTSLIEESQNQQEKNEQELL-NH2

Compound: C[C@@H](O)[C@@H]1NC(=O)[C@@H]2CSSC[C@H](C(=O)N[C@@H](Cc3ccc(O)cc3)C(=O)O)NC(=O)[C@H](CCC(N)=O)NC(=O)[C@H](Cc3ccc(O)c(I)c3)NC(=O)[C@H](CCCNC(=N)N)NC(=O)[C@H](CSSC[C@H](NC(=O)CN)C(=O)N2)NC(=O)[C@H](CCCNC(N)=O)NC(=O)[C@@H]2CCCN2C(=O)[C@H](CC(=O)O)NC1=O
IC50 [3]: 1.5 nM

Compound: CC(C)C[C@@H]1NC(=O)CNC(=O)[C@H](CC(N)=O)NC(=O)[C@H](CCCNC(=N)N)NC(=O)[C@H]([C@@H](C)O)NC(=O)[C@@H]2CSSC[C@@H]3NC(=O)[C@H]([C@@H](C)O)NC(=O)CNC(=O)CNC(=O)[C@H](C(C)C)NC(=O)[C@@H]4CSSC[C@H](NC(=O)[C@H]([C@@H](C)O)NC(=O)[C@H](CSSC[C@H](NC(=O)[C@H](C(C)C)NC(=O)[C@@H]5CCCN5C1=O)C(=O)NCC(=O)N[C@@H](CCC(=O)O)C(=O)N[C@@H]([C@@H](C)O)C(=O)N4)NC(=O)CNC(=O)[C@@H]1CCCN1C(=O)[C@H]([C@@H](C)O)NC(=O)[C@H](CC(N)=O)NC3=O)C(=O)N[C@@H](CO)C(=O)N[C@@H](Cc1c[nH]c3ccccc13)C(=O)N1CCC[C@H]1C(=O)N[C@@H](C(C)C)C(=O)N2
IC50 at 10 min [4]: 2900 nM
